Test results taken from US20220289727A1, “ENZYME INHIBITORS” (KALVISTA PHARMACEUTICALS LIMITED, priority 2019, published 2022).

What was measured:
[1] = biological target: T1, Human FXIa (Homo sapiens, UniProt P03951); test: Determination of FXIa inhibitory activity in vitro (fluorogenic substrate Z-Gly-Pro-Arg-AFC); assay type: biochemical; conditions: selectivity, 25° C., residual enzyme activity (initial rate)
T1 construct: Human FXIa (Enzyme Research Laboratories) was incubated; purchased Enzyme Research Laboratories
T1 sequence (P03951 388-625 limits assumed): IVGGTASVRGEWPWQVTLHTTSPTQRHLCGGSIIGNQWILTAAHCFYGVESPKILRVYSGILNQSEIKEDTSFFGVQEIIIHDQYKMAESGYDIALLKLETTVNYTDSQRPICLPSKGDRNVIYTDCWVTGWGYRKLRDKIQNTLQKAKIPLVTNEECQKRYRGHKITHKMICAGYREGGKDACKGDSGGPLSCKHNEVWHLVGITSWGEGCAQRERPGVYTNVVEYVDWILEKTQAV
T1 sequence (P03951 19-387 partner limits assumed): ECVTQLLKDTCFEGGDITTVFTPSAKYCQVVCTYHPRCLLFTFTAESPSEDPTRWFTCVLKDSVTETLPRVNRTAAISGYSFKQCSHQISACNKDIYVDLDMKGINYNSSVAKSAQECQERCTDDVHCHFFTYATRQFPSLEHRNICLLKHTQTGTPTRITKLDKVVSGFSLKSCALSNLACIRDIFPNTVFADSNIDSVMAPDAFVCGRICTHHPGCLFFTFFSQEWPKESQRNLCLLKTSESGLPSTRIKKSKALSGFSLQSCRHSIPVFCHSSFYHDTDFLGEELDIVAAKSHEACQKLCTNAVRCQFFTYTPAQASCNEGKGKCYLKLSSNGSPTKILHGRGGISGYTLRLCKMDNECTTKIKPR

[2] = biological target: T2, Human Factor XIIa (Homo sapiens, UniProt P00748); test: Determination of FXIIa inhibitory activity in vitro (fluorogenic substrate H-DPro-Phe-Arg-AFC); assay type: biochemical; conditions: 25° C., residual enzyme activity (initial rate)
T2 construct: Human Factor XIIa (Enzyme Research Laboratories) was incubated; purchased Enzyme Research Laboratories
T2 sequence (P00748 373-615 limits assumed): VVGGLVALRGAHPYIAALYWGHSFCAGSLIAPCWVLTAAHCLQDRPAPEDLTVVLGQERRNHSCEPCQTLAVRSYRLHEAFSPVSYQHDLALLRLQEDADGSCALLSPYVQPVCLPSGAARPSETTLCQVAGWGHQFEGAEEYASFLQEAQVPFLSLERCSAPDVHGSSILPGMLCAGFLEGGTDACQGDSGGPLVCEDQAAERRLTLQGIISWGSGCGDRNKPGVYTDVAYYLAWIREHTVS
T2 sequence (P00748 20-372 partner limits assumed): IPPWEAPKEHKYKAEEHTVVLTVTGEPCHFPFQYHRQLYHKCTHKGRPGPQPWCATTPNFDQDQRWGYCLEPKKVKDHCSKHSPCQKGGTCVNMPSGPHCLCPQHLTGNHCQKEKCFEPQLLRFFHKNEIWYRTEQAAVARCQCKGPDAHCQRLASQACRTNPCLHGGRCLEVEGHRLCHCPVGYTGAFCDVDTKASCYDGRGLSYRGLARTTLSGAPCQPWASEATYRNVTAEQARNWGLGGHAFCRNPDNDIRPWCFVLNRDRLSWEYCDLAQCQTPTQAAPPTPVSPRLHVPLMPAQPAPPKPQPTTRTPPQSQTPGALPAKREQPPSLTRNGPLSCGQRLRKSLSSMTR

Compound: COCc1c(C(=O)NCc2cnc3[nH]cc(Cl)c3c2)cnn1Cc1cc2c(cc1F)CCN(C)C2 [Example 69.01, N-((3-Chloro-1H-pyrrolo[2,3-b]pyridin-5-yl)methyl)-1-((6-fluoro-2-methyl-1,2,3,4-tetrahydroisoquinolin-7-yl)methyl)-5-(methoxymethyl)-1H-pyrazole-4-carboxamide]
- IC50 [1]: > 40 µM
- IC50 [2]: 1 to 3 µM

Compound: CN1CCC(CNc2nccc3c2C(=O)N(Cc2ccc4c(N)nccc4c2)C3)CC1 [Example 82.01, 2-((1-Aminoisoquinolin-6-yl)methyl)-4-(((1-methylpiperidin-4-yl)methyl)amino)-1,2-dihydro-3H-pyrrolo[3,4-c]pyridin-3-one]
- IC50 [1]: > 40 µM
- IC50 [2]: 10 to 40 µM
